Test results taken from ChEMBL document CHEMBL4354827, “Discovery of Novel, Potent, Brain-Permeable, and Orally Efficacious Positive Allosteric Modulator of α7 Nicotinic Acetylcholine Receptor [4-(5-(4-Chlorophenyl)-4-methyl-2-propionylthiophen-3-yl)benzenesulfonamide]: Structure-Activity Relationship and Preclinical Characterization” (J Med Chem, 2020).

Columns and labels:
[1] = Drug metabolism in rat liver microsomes assessed as metabolic rate at 1 uM preincubated for 5 mins followed by NADPH addition after 30 mins by LC-MS/MS analysis; format: ADME, Microsome; conditions: 0.5 h
[2] = Metabolic stability in rat liver microsomes assessed as compound remaining at 1 uM preincubated for 5 mins followed by NADPH addition and measured after 30 mins by LC-MS/MS analysis; format: ADME, Microsome; conditions: read-out: Stability
[3] = Protein binding in rat plasma assessed as unbound fraction at 5 uM incubated for 16 hrs under shaking condition by LC/MS/MS based rapid equilibrium dialysis method; format: ADME, cell-free
[4] = Protein binding in human plasma assessed as unbound fraction at 5 uM incubated for 16 hrs under shaking condition by LC/MS/MS based rapid equilibrium dialysis method; format: ADME, cell-free
[5] = Cmax in Wistar rat at 10 mg/kg, po after 0.25 to 144 hrs by LC-MS/MS analysis; format: ADME, organism-based; parameters: dose 10 mg/kg, route oral; conditions: in vivo
[6] = Cmax in Beagle dog at 1 mg/kg, iv after 0.083 to 144 hrs by LC-MS/MS analysis; format: ADME, organism-based, Canis lupus familiaris; parameters: dose 1 mg/kg, route intravenous; conditions: in vivo
[7] = Cmax in Beagle dog at 10 mg/kg, po after 0.25 to 144 hrs by LC-MS/MS analysis; format: ADME, organism-based, Canis lupus familiaris; parameters: dose 10 mg/kg, route oral; conditions: in vivo
[8] = Tmax in Wistar rat at 1 mg/kg, iv after 0.083 to 144 hrs by LC-MS/MS analysis; format: ADME, organism-based; conditions: in vivo
[9] = Tmax in BALB/c mouse at 10 mg/kg, po after 0.25 to 144 hrs by LC-MS/MS analysis; format: ADME, organism-based; conditions: in vivo
[10] = Volume of distribution at steady state in Beagle dog at 1 mg/kg, iv after 0.083 to 144 hrs by LC-MS/MS analysis; format: ADME, organism-based, Canis lupus familiaris; conditions: in vivo, read-out: Vdss
[11] = Drug concentration in Wistar rat plasma at 10 mg/kg, po after 48 hrs by LC-MS/MS analysis; format: ADME, organism-based
[12] = Drug concentration in Wistar rat brain at 10 mg/kg, po after 48 hrs by LC-MS/MS analysis; format: ADME, organism-based; conditions: read-out: Drug uptake
[13] = Unbound brain-to-plasma concentration ratio in Wistar rat at 10 mg/kg, po after 48 hrs by LC-MS/MS analysis; format: ADME, organism-based; conditions: read-out: K(p,uu,brain)
[14] = Cmax in Wistar rat brain at 10 mg/kg, po after 1 to 144 hrs by LC-MS/MS analysis; format: ADME, organism-based; parameters: dose 10 mg/kg, route oral
[15] = Ratio of AUCt in brain to plasma in Wistar rat at 10 mg/kg, po after 144 hrs by LC-MS/MS analysis; format: ADME, organism-based
Cytochrome P450 1A2 = target: T1, Cytochrome P450 1A2 (Homo sapiens, UniProt P05177); assay: Inhibition of CYP1A2 (unknown origin) up to 10 uM; format: ADME
T1 sequence (P05177 whole entry): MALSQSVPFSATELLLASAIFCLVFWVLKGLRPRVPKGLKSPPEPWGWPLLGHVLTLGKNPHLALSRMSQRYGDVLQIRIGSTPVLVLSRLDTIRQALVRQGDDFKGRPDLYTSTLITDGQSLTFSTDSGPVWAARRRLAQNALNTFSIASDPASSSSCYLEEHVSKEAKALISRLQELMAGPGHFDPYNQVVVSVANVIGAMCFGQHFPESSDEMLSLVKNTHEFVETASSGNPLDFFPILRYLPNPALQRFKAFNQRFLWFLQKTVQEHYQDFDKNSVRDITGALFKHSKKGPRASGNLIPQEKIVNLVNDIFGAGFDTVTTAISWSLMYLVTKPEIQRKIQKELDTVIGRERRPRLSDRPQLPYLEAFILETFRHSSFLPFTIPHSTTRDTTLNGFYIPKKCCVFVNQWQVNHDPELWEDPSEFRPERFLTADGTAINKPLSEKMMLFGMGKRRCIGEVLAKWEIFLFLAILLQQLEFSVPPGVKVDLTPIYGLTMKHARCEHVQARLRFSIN

Cytochrome P450 2C9 = Cytochrome P450 2C9 (Homo sapiens, UniProt P11712); assay: Inhibition of CYP2C9 (unknown origin) up to 10 uM; format: ADME
Sequence of Cytochrome P450 2C9 (P11712 whole entry): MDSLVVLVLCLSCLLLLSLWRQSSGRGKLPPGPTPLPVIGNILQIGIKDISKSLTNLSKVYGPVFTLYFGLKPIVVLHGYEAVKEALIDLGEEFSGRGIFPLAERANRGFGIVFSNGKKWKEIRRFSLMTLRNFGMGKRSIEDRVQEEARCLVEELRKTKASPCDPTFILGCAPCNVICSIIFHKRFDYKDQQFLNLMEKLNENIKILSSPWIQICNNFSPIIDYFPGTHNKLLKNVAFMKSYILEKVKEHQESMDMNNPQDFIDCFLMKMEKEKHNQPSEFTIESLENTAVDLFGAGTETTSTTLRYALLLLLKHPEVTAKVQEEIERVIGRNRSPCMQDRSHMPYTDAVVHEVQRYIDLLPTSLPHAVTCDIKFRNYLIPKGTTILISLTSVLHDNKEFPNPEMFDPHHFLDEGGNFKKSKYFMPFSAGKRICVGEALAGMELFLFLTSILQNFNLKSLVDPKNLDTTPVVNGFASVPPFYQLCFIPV

Cytochrome P450 2C19 = Cytochrome P450 2C19 (Homo sapiens, UniProt P33261); assay: Inhibition of CYP2C19 (unknown origin) up to 10 uM; format: ADME
Sequence of Cytochrome P450 2C19 (P33261 whole entry): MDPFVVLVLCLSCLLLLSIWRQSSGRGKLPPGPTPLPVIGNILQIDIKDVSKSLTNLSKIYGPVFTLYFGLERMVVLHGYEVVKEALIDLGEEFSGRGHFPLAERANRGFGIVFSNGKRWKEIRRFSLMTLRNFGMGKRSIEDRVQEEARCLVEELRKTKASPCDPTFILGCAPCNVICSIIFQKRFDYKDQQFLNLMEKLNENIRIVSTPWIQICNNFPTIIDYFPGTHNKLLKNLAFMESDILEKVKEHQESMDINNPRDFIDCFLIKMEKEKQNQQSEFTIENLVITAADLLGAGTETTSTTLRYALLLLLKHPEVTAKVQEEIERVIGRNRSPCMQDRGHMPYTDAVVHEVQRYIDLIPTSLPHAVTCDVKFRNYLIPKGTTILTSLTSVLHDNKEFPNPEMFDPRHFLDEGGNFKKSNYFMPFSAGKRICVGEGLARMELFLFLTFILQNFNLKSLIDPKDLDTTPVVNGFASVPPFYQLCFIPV

Rattus norvegicus [16] = assay: Memory enhancement effect in time-delay induced Wistar rat model of amnesia assessed as exploration time for object1 in acquisition trial at 1 mg/kg, po administered as single dose and measured on day 8 by novel object recognition test (reference value: 13.95 sec); format: functional
Rattus norvegicus [17] = assay: Memory enhancement effect in time-delay induced Wistar rat model of amnesia assessed as increase in exploration time for novel object in retention trial at 1 mg/kg, po administered as single dose and measured on day 9 by novel object recognition test (reference value: 12.06 sec); format: functional
Rattus norvegicus [18] = assay: Memory enhancement effect in time-delay induced Wistar rat model of amnesia assessed as exploration time for novel object at 3 mg/kg, po administered as single dose after acquisition trial by novel object recognition test (reference value: 12.81 sec); format: functional
Rattus norvegicus [19] = assay: Memory enhancement effect in time-delay induced Wistar rat model of amnesia assessed as exploration time for novel object in retention trial at 0.05 mg/kg, po for 7 days and measured on day 8 by novel object recognition test (reference value: 15.37 sec); format: functional
Rattus norvegicus [20] = assay: Memory enhancement effect in time-delay induced Wistar rat model of amnesia assessed as exploration time for novel object in retention trial at 0.5 mg/kg, po for 7 days and measured on day 8 by novel object recognition test (reference value: 15.37 sec); format: functional
Rattus norvegicus [21] = assay: Memory enhancement effect in time-delay induced Wistar rat model of amnesia assessed as increase in discrimination index at 0.15 mg/kg, po for 7 days and measured on day 8 by novel object recognition test (reference value: 0.12); format: functional
Rattus norvegicus [22] = assay: Memory enhancement effect in scopolamine-induced Wistar rat model of amnesia assessed as exploration time for novel object in retention trial at 0.05 mg/kg, po for 7 days and measured on day 8 by novel object recognition test (reference value: 12.09 sec); format: functional
Rattus norvegicus [23] = assay: Memory enhancement effect in scopolamine-induced Wistar rat model of amnesia assessed as exploration time for object1 in acquisition trial at 0.5 mg/kg, po for 7 days and measured on day 8 by novel object recognition test (reference value: 16.11 sec); format: functional
Rattus norvegicus [24] = assay: Improvement in social recognition scopolamine-induced Sprague-Dawley rat model of amnesia assessed as reduction in recognition index 3 mg/kg, po administered as single dose prior to 1 hr training and measured after 30 mins (reference value: 0.9); format: functional
[25] = Drug level in Sprague-Dawley rat plasma at 0.15 mg/kg, po for 7 days; format: ADME, organism-based
[26] = Drug level in Sprague-Dawley rat plasma at 0.5 mg/kg, po for 7 days; format: ADME, organism-based
Rattus norvegicus [27] = assay: Improvement in social recognition scopolamine-induced Sprague-Dawley rat model of amnesia assessed as reduction in recognition index at 0.15 mg/kg, po for 7 days measured after 24 hrs (reference value: 0.93); format: functional
[28] = Drug level in scopolamine-induced Sprague-Dawley rat plasma at 0.5 mg/kg, po for 7 days; format: ADME, organism-based
[29] = Cmax in human at 7.5 to 100 mg after 1 to 2.5 hrs; format: ADME; conditions: in vivo

Which Drug metabolism [1] does the source give for `CCC(=O)c1sc(-c2ccc(Cl)cc2)c(C)c1-c1ccc(S(N)(=O)=O)cc1` here?
The Drug metabolism was 0.01 nmol/min/mg.

What about the remaining at 0.5 h, 1 µM [2] of the same compound?
Its remaining at 0.5 h, 1 µM is 94%.

What about the fraction unbound at 16 h, 5 µM [3] of the same compound?
The fraction unbound at 16 h, 5 µM was 0.0058.

And the fraction unbound at 16 h, 5 µM [4]?
The fraction unbound at 16 h, 5 µM was 0.0015.

And the Cmax [5]?
The Cmax was 4100 nM.

What about the Cmax [6] of the same compound?
The Cmax was 3000 nM.

What about the Cmax [7] of the same compound?
The Cmax was 5000 nM.

What about the Tmax [8] of the same compound?
The Tmax was 4.8 min.

What about the Tmax [9] of the same compound?
Its Tmax is 4 h.

What about the Vd [10] of the same compound?
The Vd was 4 L/kg.

What about the concentration at 48 h [11] of the same compound?
The concentration at 48 h was 620 nM.

And the concentration at 48 h [12]?
Its concentration at 48 h is 5530 nM.

What about the Kp uu at 48 h [13] of the same compound?
The Kp uu at 48 h was 1.15.

And the Cmax [14]?
The Cmax was 9200 nM.

And the Kp at 144 h [15]?
The Kp at 144 h was 9.

What about the “inhibition (INH)” value (Cytochrome P450 1A2) of the same compound?
Its value is “Not Active”.

And the “inhibition (INH)” value (Cytochrome P450 2C9)?
Its value is “Not Active”.

What about the “inhibition (INH)” value (Cytochrome P450 2C19) of the same compound?
The value was “Not Active”.

What about the Time (Rattus norvegicus [16]) of the same compound?
Its Time is 23.61 s.

What about the Time (Rattus norvegicus [17]) of the same compound?
The Time was 25.93 s.

And the Time (Rattus norvegicus [18])?
The Time was 18.61 s.

What about the Time (Rattus norvegicus [19]) of the same compound?
Its Time is 13.91 s.

What about the Time (Rattus norvegicus [20]) of the same compound?
The Time was 19.64 s.

What about the Activity_index (Rattus norvegicus [21]) of the same compound?
Its Activity_index is 0.3.

And the Time (Rattus norvegicus [22])?
Its Time is 14.65 s.

And the Time (Rattus norvegicus [23])?
Its Time is 13.94 s.

What about the Activity_index (Rattus norvegicus [24]) of the same compound?
Its Activity_index is 0.45.

What about the concentration at 168 h [25] of the same compound?
Its concentration at 168 h is 320 nM.

What about the concentration at 168 h [26] of the same compound?
The concentration at 168 h was 1120 nM.

What about the Activity_index (Rattus norvegicus [27]) of the same compound?
Its Activity_index is 0.44.

And the concentration at 168 h [28]?
Its concentration at 168 h is 580 nM.

And the Cmax [29]?
The Cmax was 25.1 to 1620 ng/mL.
